Measured values as given in ChEMBL document CHEMBL3638431, “2-PYRIDYLOXY-4-NITRILE OREXIN RECEPTOR ANTAGONISTS” (2013).

Key:
[1] = molecular target: T1, Orexin/Hypocretin receptor type 1 (Rattus norvegicus, UniProt P56718); assay: FLIPR Ca2+ Flux Assay: Chinese hamster ovary (CHO) cells expressing the rat orexin-1 receptor or the human orexin-2 receptor, are grown in Iscove's modified DMEM containing 2 mM L-glutamine, […], 1% hypoxanthine-thymidine supplement, 100 U/ml penicillin, 100 ug/ml streptomycin and 10% heat-inactivated fetal calf serum (FCS). The cells are seeded at 20,000 cells/well into Becton-Dickinson black 384-well clear bottom sterile plates coated with poly-D-lysine. All reagents were from GIBCO-Invitrogen Corp. The seeded plates are incubated overnight at 37° C. and 5% CO2. Ala-6,12 human orexin-A as the agonist is prepared as a 1 mM stock solution in 1% bovine serum albumin (BSA) and diluted in assay buffer (HBSS containing 20 mM HEPES, 0.1% BSA and 2.5 mM probenecid, pH7.4) for use in the assay at a final concentration of 70 pM. Test compounds are prepared as 10 mM stock solution in DMSO, then diluted in 384-well plates, first in DMSO, then assay buffer. On the day of the assay, cells are washed 3 times with 100 ul assay buffer and then incubated for 60 min (37° C., 5% CO2) in 60 ul assay buffer containing 1 uM Fluo-4AM ester, 0.02% pluronic acid, and 1% BSA. The dye loading solution is then aspirated and cells are washed 3 times with 100 ul assay buffer. 30 ul of that same buffer is left in each well. Within the Fluorescent Imaging Plate Reader (FLIPR, Molecular Devices), test compounds are added to the plate in a volume of 25 ul, incubated for 5 min and finally 25 ul of agonist is added. Fluorescence is measured for each well at 1 second intervals for 5 minutes and the height of each fluorescence peak is compared to the height of the fluorescence peak induced by 70 pM Ala-6,12 orexin-A with buffer in place of antagonist.; format: functional
T1 sequence (P56718 whole entry): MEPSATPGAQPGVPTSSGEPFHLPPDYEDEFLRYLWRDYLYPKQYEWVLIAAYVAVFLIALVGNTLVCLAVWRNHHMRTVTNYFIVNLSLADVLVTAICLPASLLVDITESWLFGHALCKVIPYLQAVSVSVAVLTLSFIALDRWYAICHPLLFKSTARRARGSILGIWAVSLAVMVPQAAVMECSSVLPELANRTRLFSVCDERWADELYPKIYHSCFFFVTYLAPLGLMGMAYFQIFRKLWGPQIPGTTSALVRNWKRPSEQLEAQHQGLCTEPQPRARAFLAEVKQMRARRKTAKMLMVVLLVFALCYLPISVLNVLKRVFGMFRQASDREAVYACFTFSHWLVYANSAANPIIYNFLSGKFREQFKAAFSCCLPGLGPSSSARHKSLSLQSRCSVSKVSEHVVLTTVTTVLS

[2] = molecular target: T2, Orexin receptor type 2 (Homo sapiens, UniProt O43614); assay: (§1) Radioligand Binding Assay: The inhibition constant (Ki) is determined using a radioligand binding assay (described in Bergman et. al. Bioorg. Med. Chem. Lett. 2008, 18, 1425-1430).
T2 sequence (O43614 whole entry): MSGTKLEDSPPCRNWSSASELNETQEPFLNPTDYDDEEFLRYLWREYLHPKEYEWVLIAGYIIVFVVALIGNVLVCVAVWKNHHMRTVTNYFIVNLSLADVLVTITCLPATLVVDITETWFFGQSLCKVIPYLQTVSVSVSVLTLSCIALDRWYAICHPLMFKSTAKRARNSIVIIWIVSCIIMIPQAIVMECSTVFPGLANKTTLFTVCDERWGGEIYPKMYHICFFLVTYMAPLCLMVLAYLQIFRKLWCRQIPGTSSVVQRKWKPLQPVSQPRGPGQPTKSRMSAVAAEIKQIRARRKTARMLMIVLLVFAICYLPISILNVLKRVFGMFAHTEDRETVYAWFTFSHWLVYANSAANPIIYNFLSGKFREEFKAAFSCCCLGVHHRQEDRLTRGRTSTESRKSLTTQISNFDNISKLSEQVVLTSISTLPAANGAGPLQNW

[3] = molecular target: T3, Orexin/Hypocretin receptor type 1 (Homo sapiens, UniProt O43613); assay: as §1
T3 sequence (O43613 whole entry): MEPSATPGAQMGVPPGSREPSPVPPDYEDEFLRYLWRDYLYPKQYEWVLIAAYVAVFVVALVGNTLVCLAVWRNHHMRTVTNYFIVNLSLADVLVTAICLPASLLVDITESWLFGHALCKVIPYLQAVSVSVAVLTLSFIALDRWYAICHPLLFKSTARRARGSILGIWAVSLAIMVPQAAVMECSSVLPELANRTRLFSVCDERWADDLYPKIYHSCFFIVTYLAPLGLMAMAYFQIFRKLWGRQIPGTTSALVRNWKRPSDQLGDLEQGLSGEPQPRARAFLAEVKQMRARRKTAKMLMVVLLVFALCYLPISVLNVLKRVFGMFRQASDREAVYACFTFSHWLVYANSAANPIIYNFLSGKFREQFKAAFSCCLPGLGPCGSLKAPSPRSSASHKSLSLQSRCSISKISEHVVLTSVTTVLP

C[C@@H]1CC[C@@H](Oc2cc(C#N)ccn2)CN1C(=O)c1ccccc1-n1nccn1
IC50 [1]: 3650 nM | Ki [2]: 1.6 nM | Ki [3]: 813 nM

Cc1nc(-c2ccccc2C(=O)N2C[C@H](Oc3cc(C#N)ccn3)CC[C@H]2C)no1
IC50 [1]: > 10000 nM | Ki [2]: 4.5 nM | Ki [3]: 1660 nM

C[C@@H]1CC[C@@H](Oc2cc(C#N)ccn2)CN1C(=O)c1ccccc1-c1ncccn1
IC50 [1]: 4870 nM | Ki [2]: 1.3 nM | Ki [3]: 761 nM

C[C@@H]1CC[C@@H](Oc2cc(C#N)ccn2)CN1C(=O)c1ccc(C#N)cc1-n1nccn1
Ki [2]: 1360 nM | Ki [3]: 34500 nM
